The values below come from patent US8343488B2, “Diagnosis and treatment of human dormancy-related sequellae” (priority 2002, dated 2013).

Data set [1] deals with SLE, hypocomplementemic urticarial vasculitis. To be noted: in vivo.
Data set [2] has as its system stage 4-metastatic pancreatic cancer. As to the kind of experiment: Case report: antibiotic treatment of pancreatic cancer (Example 3). To be noted: before antibiotic treatment. Type of data set: in vivo, human.
Procedure: Ascites had developed and paracentesis was performed 3 days prior to our first visit. They were having difficulty breathing and eating due to abdominal distention from ascites. […] Treatment with Amoxicillin 500 mg 1 QD, Ketek 500 mg 1 QD, and Flagyl 500 mg 1-2 QD was initiated. […] 4, 2005 and was tolerating the above protocol. Their lab results from Jan. […] 27, 2004:
The dose of Flagyl was increased to 1500 mg on Jan. […] 27, 2005.
In another data set the test system is recurrent bronchitis. As to the kind of experiment: Case report: post-radiation recurrent bronchitis, antibacterial and antifungal therapy. Type of data set: in vivo, human. The note with it: 500 mg QD #20; sputum positive for Klebsiella pneumoniae. An excerpt:
It is generally known that ACC is not usually sensitive to chemotherapy or standard […] beam radiation. Higher energy radiation doses, such as neutron beam radiation, have shown some promise and referral to the Cancer Center for radiation treatment was arranged. Under the care of a physician, 16 sessions of neutron beam radiation were provided, followed by two sessions of endotracheal brachytherapy with proton radiation. The patient tolerated the radiation relatively well and returned to work. They were warned that chronic bronchitis might follow airway radiation from the loss of salivary cells and ciliary cells in the bronchus. The patient was screened for recurrence twice yearly with neck MRI and lung CT for 3 years and there was no evidence of recurrence. Post radiation year 4 brought recurrent bronchitis that would remit temporarily with antibiotic therapy.
Bronchoscopy was performed in January of 2004 to better determine the source of recurrent bronchitis. There was no evidence of cancer recurrence (FIG. 1). […] Brochoscopic washings were also sent for fungal cultures. The patient's IgG levels to Penicillium and Aspergillus were elevated, while the routine fungal cultures from bronchial washings were negative. […] The patient reported reduced fatigue, reduced inhalant allergies and a slight reduction in volume of sputum production. […]

The conditions of data set [3]: cited from earlier work.
A further data set deals with Cpn infected macrophages. To be noted: in vitro; cited from earlier work.
Data set [4] relates to stage-4 metastatic breast cancer. As to the kind of experiment: Case report: antibiotic treatment of metastatic breast cancer. In kind it is in vivo, human. As for the experimental part:
A person was diagnosed with stage-4 metastatic breast cancer with bone, pelvic and lung involvement. Treatment was initiated on Jan. 23, 2005 with Amoxicillin 500 mg 1 QD, Ketek 400 mg 1 QD, Flagyl 500 mg 2 BID. The dose of Flagyl was […] to 500 mg 1 BID on Feb. 1, 2005. By Feb. […] Hospitalization was necessary. […] The attending physicians presumed the cause of their condition was C. difficile related despite the negative tests and treated them with metronidazole. […] They were encouraged to discontinue antibiotic treatment and enter hospice for palliative care.

In data set [5] the test system is SLE, hypocomplementemic urticarial vasculitis. As to the kind of experiment: Case report: treatment of systemic lupus erythematosus.
A further data set deals with pancreatic cancer. The note with it: in vivo.
Another data set concerns seropositive RA. As to the kind of experiment: Case report: Chlamydia pneumoniae-related rheumatoid arthritis. In kind it is in vivo, human. To be noted: low dose. As for the experimental part: A person with seropositive RA with joint swelling in their hands, elbows, knees and feet had negative serology for Chlamydia pneumoniae infection, along with elevated rT3/fT3 ratio and symptoms of fibromyalgia. They were initially treated with immunosuppressive medication including Prednisone 20 mg QD, Methotrexate 15 mg Qweek, antiTNF therapy with Humira injections twice monthly with limited response of less than ACR 20. […] After failing immunosuppressive therapy, a course of antibiotics designed to treat Chlamydia pneumoniae infection was prescribed. The antibiotic protocol is consistent with that recommended by Dr. Charles Stratton of Vanderbilt University for Chlamydia pneumoniae infection. […] This example illustrates the unreliable nature of currently available tests for Chlamydia pneumoniae infection and that patients with autoimmune disease with negative tests for Chlamydia pneumoniae infection are likely to have seronegative Chlamydia pneumoniae infection and respond to antibiotics. The use of T3 and antifungal medication in conjunction with antibiotic treatment has been beneficial.

In the next data set the test system is Alzheimer's dementia. The data set can be described thus: Case report: DRS-2 in a patient with Alzheimer's dementia. To be noted: human, in vivo. As for the experimental part:
A retired attorney with Alzheimer's dementia was tested with the DRS-2 and found to be in the first percentile overall before T3 treatment and in the 25th percentile after 3 months of slow-release T3 therapy. Some parameters such as “conceptualization” increase dramatically from the 4th to the 50th percentile and “attention” improved from the 35th to the 89th percentile. […] Serology for Chlamydia pneumoniae confirmed both IgG and IgA antibodies (consistent with chronic or relapsing infection) and treatment with antibiotic medication has provided additional improvement in cognitive function. Prophylactic treatment with low dose antifungal medication is a component of this treatment.

Like-named read-outs stand apart in the source and are kept apart here.

For `Cc1oncc1C(=O)Nc1ccc(C(F)(F)F)cc1` [Arava], the tolerability of trial result in data set [1] is on record as “poorly tolerated”. Take `CCCCCOC(=O)Nc1nc(=O)n([C@@H]2O[C@H](C)[C@@H](O)[C@H]2O)cc1F` [zoloda]: in [2], the outcome of chemotherapy is “failed”. As for `C[C@H]1COc2c(N3CCN(C)CC3)c(F)cc3c(=O)c(C(=O)O)cn1c23` [Levoquin], the sputum production result with recurrent bronchitis is listed as “reduced sputum production for three weeks”. In the case of `O=C1O[C@H]([C@@H](O)CO)C(O)=C1O` [Ascorbic acid], the half life in data set [3] was 30 min. Further, the “effect on Cpn in infected macrophages” value in the data set with Cpn infected macrophages is reported as “driving the organism into cryptic phase”.

With `CN[C@H](CC(C)C)C(=O)N[C@H]1C(=O)N[C@@H](CC(N)=O)C(=O)N[C@H]2C(=O)N[C@H]3C(=O)N[C@H](C(=O)N[C@H](C(=O)O)c4cc(O)cc(O)c4-c4cc3ccc4O)[C@H](O)c3ccc(c(Cl)c3)Oc3cc2cc(c3O[C@@H]2O[C@H](CO)[C@@H](O)[C@H](O)[C@H]2O[C@H]2C[C@](C)(N)[C@H](O)[C@H](C)O2)Oc2ccc(cc2Cl)[C@H]1O` [Vancomycin], the symptoms after switch entry in data set [4] (in hospital) is “symptoms gradually improved six days later”. `CN(Cc1cnc2nc(N)nc(N)c2n1)c1ccc(C(=O)N[C@@H](CCC(=O)O)C(=O)O)cc1` [methotrexate]: in data set [5] (additional immunosuppressive therapy), the tolerability of trial result is “poorly tolerated”.

Regarding `Cc1ncc([N+](=O)[O-])n1CCO` [metronidazole], the “tolerability of increased dose” value in the data set with pancreatic cancer was “well tolerated”. Also, the adverse reaction entry in [4] (after one week of increased doses) was “severe depression, hypotension, hypothermia, emesis and diarrhea”. Further, the “symptoms of presumed C. difficile diarrhea” value in data set [4] (in hospital, C. difficile tests negative) is “symptoms did not remit”.

In the case of `CCN(CCO)CCCC(C)Nc1ccnc2cc(Cl)ccc12` (stereo not shown) [hydroxychloroquine], the “synovitis, hypocomplementemic urticarial rash and proteinuria” value in data set [5] (before October 2003) is reported as “responding to treatment”. For the compound `N[C@@H](Cc1cc(I)c(Oc2ccc(O)c(I)c2)c(I)c1)C(=O)O` [T3, triiodothyronine], the “fatigue and muscle pain” value in the data set with seropositive RA is “fatigue and muscle pain improved”. In addition, the “effect of discontinuation of supplementation” value in the data set with Alzheimer's dementia was “worsening of Alzheimer's symptoms”.
